Results reported in patent US7417049B2 (priority 2002, dated 2008).

Target: α7 nAChR Subtype (Rattus norvegicus, UniProt Q05941)
Assay type: binding
Details: read-out: KD of radioligand

Sequence of α7 nAChR Subtype (Q05941 23-502 limits assumed): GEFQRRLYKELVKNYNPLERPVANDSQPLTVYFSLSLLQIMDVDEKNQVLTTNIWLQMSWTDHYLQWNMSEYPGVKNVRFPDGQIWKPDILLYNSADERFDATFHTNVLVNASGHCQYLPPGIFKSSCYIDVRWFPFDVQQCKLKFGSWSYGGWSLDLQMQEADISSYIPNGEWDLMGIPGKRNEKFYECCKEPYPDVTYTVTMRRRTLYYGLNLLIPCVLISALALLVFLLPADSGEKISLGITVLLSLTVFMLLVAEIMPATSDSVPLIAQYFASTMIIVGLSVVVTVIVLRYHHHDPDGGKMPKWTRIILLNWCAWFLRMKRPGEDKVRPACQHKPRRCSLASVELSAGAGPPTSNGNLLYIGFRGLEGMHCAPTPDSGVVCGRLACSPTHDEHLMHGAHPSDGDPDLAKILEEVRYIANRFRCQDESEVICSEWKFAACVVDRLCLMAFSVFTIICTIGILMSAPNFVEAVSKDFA

Substance: [^125I]α-Bungarotoxin [[^125I]-α-BTX]
- Kd: 1.67 nM
